From patent US20020051821A1, “Aliginate particle formulation” (priority 2000, published 2002)

Assay type: in vitro ADME
Conditions: human, topical or ocular, 3 mg
Experimental: For a composition performance test that more closely parallels eventual practical use, candidate particle compositions can be injected into dermatomed, full thickness human skin samples. Replicate skin samples after injection can be placed on modified Franz diffusion cells containing 32° C. water, physiologic saline or buffer. Additives such as surfactants may be used to prevent binding to diffusion cell components and to maintain sink conditions. Two kinds of measurements can be made to assess performance of the formulation in the skin.
To measure the formulation performance in vitro, the active (guest) component(s) of candidate compositions can be collected by complete or aliquot replacement of the Franz cell receiver solution at predetermined time intervals for chemical assay using HPLC or other suitable analytical technique. Concentration data can be used to generate a delivery profile and calculate a steady state permeation rate. This technique can be used to screen formulations for early indication of drug binding to skin, drug dissolution, efficiency of particle penetration of stratum corneum, etc., prior to in vivo studies.
Modified Franz cells (6.9 ml) were designed for investigation of transdermal flux (FIG. 1). […]

Substance | Bioavailability [%]
Alginate | 63.8
lysozyme [Neat lysozyme] | 7.1
